The record followed here is patent US20180104354A1, “CHIMERIC ANTIGEN RECEPTOR T CELL SWITCHES AND USES THEREOF” (The California Institute for Biomedical Research, priority 2013, published 2018).

One series has as its system KB (FR+) cells. As to the kind of experiment: In vitro cytotoxicity assay of anti-FITC-CAR-Ts with Folate-FITC, KB. The format is cell-based. As to the method:
(§1) Transduced human effector cells (˜50% transduction efficiency) were co-incubated with target cells at 10:1 (total T cells to target cells) ratio for 24 hr in the presence of varying concentrations of FITC “switches.” Redirected lysis of target cells was determined by CytoTox96 nonradioactive cytotoxicity assay kit (Promega, Madison, Wis.) according to manufacturer's protocol. The percentage of cytotoxicity was calculated by: % cytotoxicity=(Absorbance experimental average−Absorbance spontaneous average)/(absorbance max killing average−Absorbance spontaneous average)×100.
(§2) Human PBMCs were freshly isolated from whole blood of healthy donors by centrifugation with Ficoll-Paque PLUS (GE healthcare, Piscataway, N.J.) density gradient medium according to manufacturer's protocol. Cells were immediately activated with Dynabeads Human […] CD3/CD28 (Life Technologies, Carlsbad, Calif.) at 3:1 (bead to cell) ratio in AIM-V media (Life Technologies) containing 5% human AB serum (Valley Biomedical, Winchester, Va.). Lentiviral production was carried out using HEK293FT cell lines. Viral supernatant was used directly to transduce activated PBMCs via spinoculation in the presence of protamine sulfate and recombinant human IL2 (R&D systems, Minneapolis, Minn.). C4-2, KB, and A549 cell lines were maintained in RPMI-1640, Eagles's Minimum Essential Media, and F-12K medium supplemented with 10% fetal bovine serum, respectively (all from Life Technologies).
(§3) FIG. 6B-6C depicts the results from an in vitro cytotoxicity assay of anti-FITC-CAR-Ts co-incubated with KB (FR+) (see FIG. 6B) or A549 (FR−) (see FIG. 6C) target cells in the presence of varying concentrations Folate-FITC. Each concentration was carried out in triplicates. Results are shown as average percentage of cytotoxicity.

For the next series, the system named is A549 (FR−) cells. As to the kind of experiment: In vitro cytotoxicity assay of anti-FITC-CAR-Ts with Folate-FITC, A549. The format is cell-based. The settings on record: Homo sapiens; for cytotoxicity at 320 fM: 0.32 pM; for cytotoxicity at 0.0002 µM: 200 pM; for cytotoxicity at 0.001 µM: 1000 pM; for cytotoxicity at 0.005 µM: 5000 pM. As for the experimental part: as §1, §2, §3

The next series deals with C4-2 (PSMA+) tumors. As to the kind of experiment: In vivo efficacy, subcutaneous C4-2 tumors in NSG mice. The following applies: s.c. C4-2 tumors. An excerpt: (§4) In brief, subcutaneous C4-2 (PSMA+) tumors were established in non-obese diabetic-severe combined immunodeficiency (NOD-SCID-γ−/−, NSG) mice.
Series [1] in a line: Pharmacokinetic study of P-TriA-FITC in mice. It counts as in vivo.
Excerpt: as §4

Series [2] has as its system C4-2 (PSMA+) prostate cancer cells. Briefly: 24 hr cytotoxicity assay of anti-FITC-CAR T cells with P-TriA-FITC, C4-2. It counts as cell-based. The following applies: triplicates. As to the method: as §1, §2
FIG. 5B depicts a scheme for synthesis of the TriA-2-[3-(1,3-dicarboxypropyl)ureido] pentanedioic acid linker to be conjugated to FITC. FIG. 5C depicts the results from a 24 hr cytotoxicity assay of anti-FITC-CAR T cells targeting C4-2 (PSMA+) prostate cancer cells with serial dilutions of P-TriA-FITC. Each concentration was carried out in triplicate. Results are shown as average percentage of cytotoxicity.

The next series concerns the target Her2 (UniProt P04626). Briefly: cell-based or functional assay.
The target in series [3] is T1, CD19 (human, UniProt P15391 20-556).
T1 sequence (looked up): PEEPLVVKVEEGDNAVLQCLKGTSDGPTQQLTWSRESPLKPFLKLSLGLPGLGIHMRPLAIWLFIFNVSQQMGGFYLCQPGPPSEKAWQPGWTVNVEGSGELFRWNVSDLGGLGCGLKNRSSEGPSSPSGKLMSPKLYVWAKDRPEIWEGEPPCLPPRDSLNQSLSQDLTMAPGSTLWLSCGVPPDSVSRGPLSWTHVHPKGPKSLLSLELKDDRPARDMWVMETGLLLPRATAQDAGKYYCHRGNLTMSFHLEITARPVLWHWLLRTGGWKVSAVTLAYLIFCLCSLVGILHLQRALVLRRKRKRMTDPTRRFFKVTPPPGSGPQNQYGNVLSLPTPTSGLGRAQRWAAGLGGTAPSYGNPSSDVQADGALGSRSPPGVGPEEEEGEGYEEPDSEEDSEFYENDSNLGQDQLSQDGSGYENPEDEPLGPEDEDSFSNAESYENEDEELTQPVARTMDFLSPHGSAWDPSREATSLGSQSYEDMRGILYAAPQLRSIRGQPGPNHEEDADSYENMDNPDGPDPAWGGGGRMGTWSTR
As to the kind of experiment: cell-based or functional assay.

For series [4], the target named is T1, CD19. As to the kind of experiment: cell-based or functional assay. The source holds these as a separate data set.

Where “and” joins values, the source holds several entries; their conditions need not be identical. Equal values may be shown once. Read-outs that look alike come from different tables or passages of the source.

As to `Nc1nc2ncc(CNc3ccc(C(=O)N[C@H](CCC(=O)NCCNC(=S)Nc4ccc5c(c4)C(=O)OC54c5ccc(O)cc5Oc5cc(O)ccc54)C(=O)O)cc3)nc2c(=O)[nH]1` [FITC-folate switch], the cytotoxicity at 1.6 pM in the series with KB (FR+) cells was 16.5%; in the series on KB (FR+) cells (T-cell, KB (FR+), non-transduced T cells, 1.6 pM), 3.01%; with A549 (FR−) cells (4M5.3 CAR-T), 0.527%; with A549 (FR−) cells (non-transduced T cells), -1.02%. Further, the cytotoxicity at 8 pM in the series on KB (FR+) cells was 37.1%; in the series with KB (FR+) cells (T-cell, KB (FR+), non-transduced T cells, 8 pM), 2.19%; in the series with A549 (FR−) cells (4M5.3 CAR-T) it was 0.765%; with A549 (FR−) cells (non-transduced T cells) it was -1.05%. For the same molecule, the cytotoxicity at 40 pM is 68.1% in the series on KB (FR+) cells; 2.88% in the series with KB (FR+) cells (T-cell, KB (FR+), non-transduced T cells, 40 pM); 2.55% in the series on A549 (FR−) cells (4M5.3 CAR-T); -1.52% in the series on A549 (FR−) cells (non-transduced T cells). The cytotoxicity at 0.0002 µM with KB (FR+) cells was 74.6%; with KB (FR+) cells (T-cell, KB (FR+), non-transduced T cells, 200 pM), 2.32%; in the series with A549 (FR−) cells (4M5.3 CAR-T), 5.78%; in the series on A549 (FR−) cells (non-transduced T cells) it was -0.96%. For the same molecule, the cytotoxicity at 0.001 µM was 77.1% in the series with KB (FR+) cells; 2.38% with KB (FR+) cells (T-cell, KB (FR+), non-transduced T cells, 1000 pM); 5.87% in the series with A549 (FR−) cells (4M5.3 CAR-T); -1.16% in the series on A549 (FR−) cells (non-transduced T cells). The cytotoxicity at 0.005 µM in the series with KB (FR+) cells was 77%; in the series with KB (FR+) cells (T-cell, KB (FR+), non-transduced T cells, 5000 pM) it was 2.04%; with A549 (FR−) cells (4M5.3 CAR-T) it was 3.15%; with A549 (FR−) cells (non-transduced T cells), -1.61%. The cytotoxicity at 320 fM is 8.3% in the series on KB (FR+) cells; 2.27% in the series with KB (FR+) cells (T-cell, KB (FR+), non-transduced T cells, 0.32 pM); 0.957% in the series with A549 (FR−) cells (4M5.3 CAR-T); -0.986% in the series with A549 (FR−) cells (non-transduced T cells).
As for `O=C(O)CCC(NC(=O)NC(CCCCn1cc(CCCCCCNC(=O)c2ccc(C(=O)NCCOCCOCCOCCNC(=O)c3ccc4c(c3)C(=O)OC43c4ccc(O)cc4Oc4cc(O)ccc43)cc2)nn1)C(=O)O)C(=O)O` (centres unmarked) [P-TriA-FITC, 2-[3-(1,3-dicarboxypropyl)ureido]pentanedioic acid-TriA-FITC], the Tumor response result is “tumors had regressed” in the series with C4-2 (PSMA+) tumors (FITC-CART cells (FITC-E2) i.p. plus switch 1 mg/kg i.v. daily for 10 days) and “tumor growth continued” with C4-2 (PSMA+) tumors (switch only, no CART cells). For the same molecule, the “intravenous (IV) half-life t1/2” value in series [1] was 1.08 ± 0.14 h. The percentage of cytotoxicity in series [2] (4M5.3 anti-FITC CAR T cells, 0.000512 pM) is 3.992% and 3.358% and 4.689%; in series [2] (4M5.3 anti-FITC CAR T cells, 0.012800 pM), 3.555% and 1.304% and 1.206%; in series [2] (4M5.3 anti-FITC CAR T cells, 0.320000 pM), 2.224% and 2.545% and 2.965%; in series [2] (4M5.3 anti-FITC CAR T cells, 8.000000 pM) it was 9.173% and 10.76% and 7.583%; in series [2] (4M5.3 anti-FITC CAR T cells, 40.000000 pM), 52.56% and 55.81% and 53.56%; in series [2] (4M5.3 anti-FITC CAR T cells, 200.000000 pM), 77.22% and 76.53% and 73.92%. Further, the percentage of cytotoxicity in series [2] (4M5.3 anti-FITC CAR T cells, 1000.000000 pM) was 82.62% and 79.94% and 78.91%; in series [2] (4M5.3 anti-FITC CAR T cells, 5000.000000 pM), 82.04% and 77.45% and 78.01%; in series [2] (Non-transduced T cells, 0.000512 pM), 1.418% and 0.8462% and 1.052%; in series [2] (Non-transduced T cells, 0.012800 pM) it was 1.632% and 0.1496% and 0.8552%; in series [2] (Non-transduced T cells, 0.320000 pM), 0.1943% and 0.5515% and −0.1898%; in series [2] (Non-transduced T cells, 8.000000 pM) it was 1.409% and 0.4622% and 0.5515%. Further, the percentage of cytotoxicity in series [2] (Non-transduced T cells, 40.000000 pM) was −1.11% and −0.5828% and 1.177%; in series [2] (Non-transduced T cells, 200.000000 pM) it was −0.5292% and 0.5069% and −0.422%; in series [2] (Non-transduced T cells, 1000.000000 pM) it was 0.02456% and 0.09601% and 0.04242%; in series [2] (Non-transduced T cells, 5000.000000 pM) it was 1.052% and −0.9132% and 0.1139%.
Take “FITC-anti-Her2 antibody CAR-T switch with FITC conjugated at LC S202pAcF (Fab based on Trastuzumab)”: in the series with Her2, the % cytotoxicity; 0.01 pM switch; MDA MB231 cells stood at 0%, the % cytotoxicity; 0.1 pM switch; MDA MB231 cells is 0%, the % cytotoxicity; 100 pM switch; MDA MB231 cells came out at 48% and the EC50 of cytotoxicity; SKBR3 cells fell in the range of 8000 to 20000 pM.

B1: anti-CD19 Fab-FITC switch LG68X (pAzF at glycine 68 of the light chain) (Fab, V domains shown)
VH: EVKLQESGPGLVAPSQSLSVTCTVSGVSLPDYGVSWIRQPPRKGLEWLGVIWGSETTYYNSALKSRLTIIKDNSKSQVFLKMNSLQTDDTAIYYCAKHYYYGGSYAMDYWGQGTSVTVSS
VL: DIQMTQTTSSLSASLGDRVTISCRASQDISKYLNWYQQKPDGTVKLLIYHTSRLHSGVPSRFSGSGSXTDYSLTISNLEQEDIATYFCQQGNTLPYTFGGGTKLEIKR
modifications: p-azidophenylalanine (pAzF) at LC G68, clicked to cyclooctyne-FITC linker
Take B1: in the series with CD19 [3], the “Cytotoxicity EC50; FITC-E2 CAR-T; NALM6 cells” value worked out at 3.53 pM. Further, in the series with CD19 [4], the “% cytotoxicity; 0.01 pM switch; FITC-E2 CAR-T; NALM6 cells” value amounted to 0%, the “% cytotoxicity; 0.1 pM switch; FITC-E2 CAR-T; NALM6 cells” value was determined as 3.85%, the “% cytotoxicity; 1 pM switch; FITC-E2 CAR-T; NALM6 cells” value is 17.8% and the “% cytotoxicity; 10 pM switch; FITC-E2 CAR-T; NALM6 cells” value amounted to 56.7%. In the series with CD19 [4], the “% cytotoxicity; 100 pM switch; FITC-E2 CAR-T; NALM6 cells” value came out at 78.1% and the “% cytotoxicity; 1000 pM switch; FITC-E2 CAR-T; NALM6 cells” value is 74.5%.

B2: anti-CD19 Fab-FITC switch HS74X (pAzF at serine 74 of the heavy chain) (Fab, V domains shown)
VH: EVKLQESGPGLVAPSQSLSVTCTVSGVSLPDYGVSWIRQPPRKGLEWLGVIWGSETTYYNSALKSRLTIIKDNXKSQVFLKMNSLQTDDTAIYYCAKHYYYGGSYAMDYWGQGTSVTVSS
VL: DIQMTQTTSSLSASLGDRVTISCRASQDISKYLNWYQQKPDGTVKLLIYHTSRLHSGVPSRFSGSGSGTDYSLTISNLEQEDIATYFCQQGNTLPYTFGGGTKLEIKR
modifications: pAzF at HC S74, clicked to cyclooctyne-FITC linker
Regarding B2, the “Cytotoxicity EC50; FITC-E2 CAR-T; NALM6 cells” value in the series with CD19 [3] was 0.97 pM. Further, in the series with CD19 [4], the “% cytotoxicity; 0.01 pM switch; FITC-E2 CAR-T; NALM6 cells” value turned out to be 0%, the “% cytotoxicity; 0.1 pM switch; FITC-E2 CAR-T; NALM6 cells” value was determined as 21.4% and the “% cytotoxicity; 1 pM switch; FITC-E2 CAR-T; NALM6 cells” value amounted to 47.6%.
